Reference: US12691124B2, “Methods of controlling and improving brain health” (ICAHN SCHOOL OF MEDICINE AT MOUNT SINAI, priority 2019, dated 2026)

Biological target: T1, BRD2 (Mus musculus, UniProt Q7JJ13)
T1 construct: Primary cortical neurons express BRD2/3/4, with BRD2 and BRD4 being the most abundant; endogenous in cells; host or cells: primary cortical neuronal cultures (mouse)
Experiment: ChIP sequencing of BRD2 chromatin occupancy in neurons
Assay type: cell-based
Description: Chromatin Immunoprecipitation with Sequencing. Primary cortical neuronal cultures were washed once with PBS then fixed for 10 minutes with a 1% formaldehyde solution in PBS with protease inhibitors (Sigma #P8340) at room temperature. Fixation was quenched adding glycine to a final concentration of 0.125M (5 minutes, room temperature). 10e6 fixed cells were resuspended in 1 ml of lysis buffer (50 mM Hepes KOH, pH7.5, 140 mM NaCl, 1 mM EDTA, 10% glycerol, 0.5% NP-40, 0.25% Triton X-100) and 10 ul of protease inhibitor cocktail (PIC). Samples were rotated for 10 minutes at 4 degrees then spun at 1350 g at 4 C for 10 minutes. Pellets were resuspended in 1 ml of lysis buffer 2 (10 mM Tris-HCl pH8.0, 200 mM NaCl, 1 mM EDTA, 0.5 mM EGTA) and 10 ul PIC.). 5e6 nuclei were sonicated in lysis buffer 3 (10 mM Tris-HCl pH8.0, 100 mM NaCl, 1 mM EDTA, 0.5 mM EGTA, 0.1% Na-Deoxicholate, 0.5% N-Lauroylsarcosine) at 4 degrees for 5 cycles of 30 seconds ON/30 seconds OFF using the Diagenode bioruptor. After, 30 ul of 10% Triton-X100 was added to each sample and then spun for 15 minutes at 20,000 g at 4 degrees. Sonication efficiency was checked by running the samples on a 2% agarose gel to confirm enrichment for fragments from 200-500 bps.
Streptavidin M-280 dynabeads were blocked with 0.5% BSA solution and coupled to 7 ug of antibody (Brd4 #Ab84778, Brd2 Bethyl #A302-583A, Pol2 Ser5 #Ab5408) for at least 8 hours at 4 degrees, rotating. Antibody-coupled beads were then added to sonicated chromatin (20e6 cells for Brd2/Brd4, 10e6 for Pol2) and incubated overnight at 4 degrees. After washing the IPs eight times with wash buffer (50 mM Hepes-KOH pH7.6, 100 mM LiCl, 1 mM EDTA, 1% NP-40, 0.7% Na-Deoxycholate) and once with TE buffer (10 mM Tris-HCl, 1 mM EDTA, 50 mM NaCl), Chromatin was eluted from magnetic beads in 200 ul elution buffer ([…] Tris-HCl pH8.0, 10 mM EDTA, 1% SDS) for 45 minutes at 65 degrees. Samples were de-crosslinked overnight at 65 degrees and proteins and RNA were removed by incubating with RNAse and proteinase k. Samples were purified using the Qiagen PCR purification kit according to the manufacturers protocol.
Samples were end-repaired using the End-IT DNA End-Repair Kit (#ER0720). After 45 minutes incubation, samples were purified using the Qiagen PCR Clean up kit as described above. Samples were adenylated using a reaction mix (200 uM dATP, 1× Klenow buffer NEB2, Klenow Fragment (3′ to 5′ exo-), NEB M0212L) and incubating at 37 degrees for 30 minutes. […] Raw sequencing reads were then aligned to the mouse mm9 genome using the default settings of Bowtie (v2.2.0)87. Only uniquely mapped reads were retained, and the alignments were subsequently filtered using the SAMtools package (v0.1.19)88 to remove duplicate reads. […]

T1 sequence (Q7JJ13 whole entry): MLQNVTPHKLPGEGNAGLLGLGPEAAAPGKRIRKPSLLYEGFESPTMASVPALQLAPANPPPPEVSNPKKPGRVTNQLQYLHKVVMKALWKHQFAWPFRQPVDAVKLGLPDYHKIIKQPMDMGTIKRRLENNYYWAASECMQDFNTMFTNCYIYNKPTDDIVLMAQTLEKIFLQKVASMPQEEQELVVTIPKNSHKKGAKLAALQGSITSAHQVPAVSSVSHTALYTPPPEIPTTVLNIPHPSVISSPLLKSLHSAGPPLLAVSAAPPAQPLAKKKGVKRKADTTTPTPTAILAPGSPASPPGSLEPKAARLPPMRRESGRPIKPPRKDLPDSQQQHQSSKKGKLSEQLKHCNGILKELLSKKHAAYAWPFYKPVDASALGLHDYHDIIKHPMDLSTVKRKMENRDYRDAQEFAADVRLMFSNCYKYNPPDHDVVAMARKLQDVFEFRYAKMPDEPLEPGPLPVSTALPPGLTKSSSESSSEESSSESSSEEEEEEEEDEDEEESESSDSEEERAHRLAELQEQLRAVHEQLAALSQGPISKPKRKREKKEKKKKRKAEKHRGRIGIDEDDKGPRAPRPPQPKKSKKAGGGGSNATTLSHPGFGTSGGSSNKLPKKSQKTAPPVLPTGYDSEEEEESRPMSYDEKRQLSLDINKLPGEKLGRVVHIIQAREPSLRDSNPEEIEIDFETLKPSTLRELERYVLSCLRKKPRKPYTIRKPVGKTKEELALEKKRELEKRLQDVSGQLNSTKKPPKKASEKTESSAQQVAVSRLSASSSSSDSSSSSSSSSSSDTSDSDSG

CC(=O)N1c2ccc(-c3ccc(CN4CCCCC4)cc3)cc2[C@H](Nc2ccccc2)CC1C (stereo in doubt) [IBET858]
genes that lose BRD2 at the transcriptional start site (6 h IBET858): 1497 genes | genes with gain of BRD2 at the transcriptional start site (6 h IBET858): 828 genes | loci with reduced occupancy of BRD2 (DIV7, 6 h IBET858): 2099 loci | loci with increased occupancy of BRD2 (day 7, 6 h IBET858): 1680 loci
